Test results taken from patent US11565264B2, “Expandable arrays and methods of use” (Rutgers, The State University of New Jersey, priority 2018, dated 2023).

How the values were obtained:
GBM PDOs = assay: 72-hour drug treatment of GBM patient derived organoids (PDOs) in basket arrays; type: cell-based; conditions: 72-hour treatment
Method: The basket arrays were used to deploy rapid single cell derived sphere and organoid assays to assess tumor cell viability, tumor invasion, terminal differentiation and resistance to therapy for cancer drug discovery and drug validation. […] PDOs were treated for 72-hours with standard chemotherapy (TMZ) and/or molecularly targeted agents, targeting mTOR, PI3K, BMI1, EGFR, and DDR, among others. Following treatments, the entire 4D printed basket arrays were evolved, with a 10-min heating step at 50° C., to their programmable cassette size to directly perform histological and IHC validation on the same day, and with the convenience of maintaining the same tissue plate arrangement. The concentrations inhibiting viability by 50% (GI50), real time activated caspase 3 for detection of apoptotic cells and GBM tumor cell invasion in live intact organoid cells were less impacted by standard TMZ than targeted therapies.

U87 spheres = conditions: read-out: EC50 (median dose); GBM cell viability
Excerpt: FIG. 15A illustrates the results of the cell titer glo assay that utilizes ATP levels and was used to determine GBM viability in the presence of component biomaterials. FIGS. 15B and 15C are low-power images of bright fields of spheres cultured for one week in the presence of the indicated chemicals and concentrations. The insets are higher power (20×) magnification of the 5× images.

[1] = live intact organoid cells, TMZ compared with targeted therapies

Compound	EGFR expression in organoid cells (GBM PDOs)	GBM tumor cell invasion (GBM PDOs; [1])	concentrations inhibiting viability by 50% (GI50) (GBM PDOs; [1])	real time activated caspase 3 for detection of apoptotic cells (GBM PDOs; [1])	EC50 (U87 spheres) [µM]
Cn1nnc2c(C(N)=O)ncn2c1=O [TMZ]	not affected	less impacted	less impacted	less impacted	
poly (Ethylene glycol) diacrylate 250 [PEGDA250]					7.2
